Results published in patent publication US9067889B2, “Biphenylcarboxamides as ROCK kinase inhibitors” (Amakem NV, priority 2011, dated 2015).

How the values were obtained:
[1] = Stability assay in human plasma; assay type: in vitro ADME; conditions: 1 μM compound in human plasma, LC-MS/MS
Protocol: C.2.1. Stability Assay in Human and/or Rat Plasma
Compounds are incubated at a concentration of 1 μM in human plasma (or rat, mice, dog, monkey, minipig or rabbit). Samples are taken at fixed time points and the remnant of compound is determined by LC-MS/MS after protein precipitation.

[2] = Stability assay in rabbit aqueous humor; assay type: in vitro ADME; conditions: 1 μM compound in rabbit aqueous humor, LC-MS/MS
Protocol: C.2.2. Stability Assay in Rabbit Aqueous Humor
Compounds are incubated at a concentration of 1 μM in rabbit aqueous humor (AH). Samples are taken at fixed time points and the remnant of compound is determined by LC-MS/MS after protein precipitation.

t1/2(min) in human plasma [1]: <60 min | t½ rabbit AH [2]: 58 min
SMILES: COC(=O)Cc1cccc(NC(=O)c2cccc(-c3cc(C(=O)Nc4ccncc4F)ccc3CN)c2)c1 [Compound 1]
